Experiment [1] addresses T1, 3',5'-cyclic-AMP phosphodiesterase 4B (Homo sapiens, UniProt Q07343). The experiment in a line: Inhibition of recombinant PDE4B1 (unknown origin) expressed in Sf9 cells at 30 uM pre-incubated with compound for 15 mins before incubation with cAMP substrate for 1 hr.
Experiment [2] has as its target 3',5'-cyclic-AMP phosphodiesterase 4D (Homo sapiens, UniProt Q08499). The experiment in a line: Inhibition of recombinant PDE4D2 (unknown origin) expressed in Sf9 cells pre-incubated with compound for 15 mins before incubation with cAMP substrate for 1 hr.
The next experiment concerns RAW264.7. The experiment is described as follows: Inhibition of LPS-induced TNFalpha production in mouse RAW264.7 cells pre-incubated with compound for 30 mins before LPS challenge by ELISA. The format is functional, cell-based. For orientation: ELISA stands for enzyme-linked immunosorbent assay.
Experiment [3] addresses T1, 3',5'-cyclic-AMP phosphodiesterase 4B. The experiment in a line: Inhibition of recombinant PDE4B1 (unknown origin) expressed in Sf9 cells pre-incubated with compound for 15 mins before incubation with cAMP substrate for 1 hr.

Data on 29 molecules can be found in ChEMBL document CHEMBL2311319, “Discovery of novel 1,4-dihydropyridine-based PDE4 inhibitors” (Bioorg Med Chem Lett, 2013).

T1 sequence (Q07343 whole entry): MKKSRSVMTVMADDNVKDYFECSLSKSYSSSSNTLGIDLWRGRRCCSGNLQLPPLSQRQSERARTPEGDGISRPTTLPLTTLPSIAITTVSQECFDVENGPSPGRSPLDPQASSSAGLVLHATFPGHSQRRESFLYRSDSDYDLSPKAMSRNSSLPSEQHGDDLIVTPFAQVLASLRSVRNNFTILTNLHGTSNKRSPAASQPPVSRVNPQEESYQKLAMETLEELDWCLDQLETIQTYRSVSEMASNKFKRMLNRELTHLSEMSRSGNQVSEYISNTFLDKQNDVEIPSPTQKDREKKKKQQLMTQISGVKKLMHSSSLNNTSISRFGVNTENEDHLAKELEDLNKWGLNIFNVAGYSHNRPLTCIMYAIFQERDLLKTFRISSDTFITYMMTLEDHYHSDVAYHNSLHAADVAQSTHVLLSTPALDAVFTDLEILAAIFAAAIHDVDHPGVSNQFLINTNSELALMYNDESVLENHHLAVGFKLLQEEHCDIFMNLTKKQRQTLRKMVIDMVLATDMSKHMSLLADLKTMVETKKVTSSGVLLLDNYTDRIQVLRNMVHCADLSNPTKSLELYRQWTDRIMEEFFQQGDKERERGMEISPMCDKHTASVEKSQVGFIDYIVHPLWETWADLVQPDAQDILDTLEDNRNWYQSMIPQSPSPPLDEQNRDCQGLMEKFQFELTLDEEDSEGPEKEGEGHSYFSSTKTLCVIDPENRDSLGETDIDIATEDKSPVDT
3',5'-cyclic-AMP phosphodiesterase 4D, sequence (Q08499 whole entry): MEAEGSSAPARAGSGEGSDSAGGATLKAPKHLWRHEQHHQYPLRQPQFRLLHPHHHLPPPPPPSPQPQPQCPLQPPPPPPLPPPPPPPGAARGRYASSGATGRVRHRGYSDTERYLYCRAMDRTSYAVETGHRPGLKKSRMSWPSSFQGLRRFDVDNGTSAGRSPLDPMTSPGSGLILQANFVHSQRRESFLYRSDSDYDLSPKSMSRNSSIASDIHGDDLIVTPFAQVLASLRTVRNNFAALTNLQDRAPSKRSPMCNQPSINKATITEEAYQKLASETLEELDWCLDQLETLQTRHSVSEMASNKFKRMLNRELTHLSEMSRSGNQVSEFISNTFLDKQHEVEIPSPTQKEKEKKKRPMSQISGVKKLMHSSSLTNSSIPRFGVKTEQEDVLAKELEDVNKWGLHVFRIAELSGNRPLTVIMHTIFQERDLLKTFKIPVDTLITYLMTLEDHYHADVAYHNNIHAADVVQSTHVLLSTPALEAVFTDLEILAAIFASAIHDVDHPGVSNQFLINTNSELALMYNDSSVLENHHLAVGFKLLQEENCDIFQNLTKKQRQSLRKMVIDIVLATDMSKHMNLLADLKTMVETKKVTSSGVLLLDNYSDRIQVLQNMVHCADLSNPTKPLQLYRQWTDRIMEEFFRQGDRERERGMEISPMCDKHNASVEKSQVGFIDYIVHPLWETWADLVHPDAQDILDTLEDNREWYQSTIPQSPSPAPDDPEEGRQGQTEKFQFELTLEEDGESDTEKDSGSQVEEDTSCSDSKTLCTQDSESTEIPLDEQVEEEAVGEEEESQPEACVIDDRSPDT

One may read the inhibition as the share of the control response that was lost under treatment. Regarding `CCOC(=O)C1=CN(Cc2ccc3c(c2)OCO3)C=C(C(=O)OCC)C1c1ccc(OC)cc1`, the inhibition in experiment [1] turned out to be 42%.

Regarding `CCOC(=O)C1=CN(Cc2ccc(OC)cc2)C=C(C(=O)OCC)C1c1ccc([N+](=O)[O-])cc1`, in experiment [1], the inhibition was found to be 38%.

Broadly, the IC50 is the point on the concentration scale where inhibition reaches its midpoint. In the case of `CCOC(=O)C1=CN(Cc2ccc(OC)c(OC)c2)C=C(C(=O)OCC)C1c1c[nH]c2ccccc12`, the 50% inhibitory concentration (IC50) was found to be 650 nM in experiment [2], 3200 nM in the experiment on RAW264.7 and 540 nM in experiment [3]. The inhibition in experiment [1] was found to be 95%.

With `CCOC(=O)C1=CN(Cc2ccccc2Cl)C=C(C(=O)OCC)C1c1ccccc1`, the inhibition in experiment [1] was 33%.

With `CCOC(=O)C1=CN(Cc2ccc(OC)c(OC)c2)C=C(C(=O)OCC)C1c1cccc2ccccc12`, the inhibition in experiment [1] was 75%.

On to `CCOC(=O)C1=CN(Cc2ccc(OC)c(OC)c2)C=C(C(=O)OCC)C1Cc1ccccc1`, for which the inhibition in experiment [1] is 79%.

For `CCOC(=O)C1=CN(Cc2cccc(Cl)c2)C=C(C(=O)OCC)C1Cc1ccccc1`, the inhibition in experiment [1] was 31%.

`CCCCCCCCCCCCCCCCN1C=C(C(=O)OCC)C(c2ccc(OC)cc2)C(C(=O)OCC)=C1`: in experiment [1], the inhibition was 17%.

Consider `CCOC(=O)C1=CN(Cc2ccc(Cl)cc2)C=C(C(=O)OCC)C1c1ccc(Cl)cc1`, for which the inhibition in experiment [1] worked out at 15%.

With `CCOC(=O)C1=CN(c2ccccc2)C=C(C(=O)OCC)C1c1ccc(Cl)cc1`, the inhibition in experiment [1] stood at 30.5%.

For the molecule `CCOC(=O)C1=CN(Cc2ccc(OC)c(OC)c2)C=C(C(=O)OCC)C1c1ccc(Cl)cc1`, the figures for the concentration for half-maximal inhibition (IC50) in experiment [2] and in experiment [3] were 2780 nM and 3710 nM, respectively. Moreover, the inhibition in experiment [1] was determined as 80%.

As for `CCCCCCCCN1C=C(C(=O)OCC)C(c2ccc(OC)cc2)C(C(=O)OCC)=C1`, the inhibition in experiment [1] is 25%.

`CCOC(=O)C1=CN(Cc2ccc(OC)cc2)C=C(C(=O)OCC)C1c1ccc(Cl)cc1`: the inhibition in experiment [1] was determined as 23%.

Consider `CCOC(=O)C1=CN(Cc2ccc(OC)cc2)C=C(C(=O)OCC)C1c1cccc(F)c1`, for which, in experiment [1], the inhibition is 28%.

On to `CCOC(=O)C1=CN(Cc2ccccc2Cl)C=C(C(=O)OCC)C1c1ccc(OC)cc1`, for which the inhibition in experiment [1] was found to be 58%.

For the molecule `CCOC(=O)C1=CN(CC2CCCCC2)C=C(C(=O)OCC)C1c1ccc(Cl)cc1`, the inhibition in experiment [1] amounted to 28%.

Take `CCOC(=O)C1=CN(Cc2ccc(OC)c(OC)c2)C=C(C(=O)OCC)C1c1cccc(Cl)c1`: the inhibition in experiment [1] turned out to be 78%.

In the case of `CCOC(=O)C1=CN(c2ccc(OC)cc2)C=C(C(=O)OCC)C1c1ccc(Cl)cc1`, the inhibition in experiment [1] came to 33%.

`C=CCN1C=C(C(=O)OCC)C(c2ccc(O)cc2)C(C(=O)OCC)=C1`: the inhibition in experiment [1] was determined as 51.5%.

For `CCOC(=O)C1=CN(Cc2ccc(Cl)cc2)C=C(C(=O)OCC)C1c1cccc(F)c1`, the inhibition in experiment [1] turned out to be 8%.

For `CCOC(=O)C1=CN(Cc2ccc(C(F)(F)F)cc2)C=C(C(=O)OCC)C1c1ccc(O)cc1`, the inhibition in experiment [1] came to 35%.

As for `CCOC(=O)C1=CN(c2ccc(Cl)cc2)C=C(C(=O)OCC)C1c1ccc(Cl)cc1`, the inhibition in experiment [1] stood at 23%.

Take `CCOC(=O)C1=CN(Cc2ccc3c(c2)OCO3)C=C(C(=O)OCC)C1c1ccc(O)cc1`: the inhibition in experiment [1] came to 72%.

For the molecule `CCOC(=O)C1=CN(Cc2ccc(C(F)(F)F)cc2)C=C(C(=O)OCC)C1c1ccc(OC)cc1`, the inhibition in experiment [1] is 21%.

With `CCOC(=O)C1=CN(Cc2ccc(OC)c(OC)c2)C=C(C(=O)OCC)C1c1cccc([N+](=O)[O-])c1`, the results for the IC50 in experiment [2] and in experiment [3] were 2890 nM and 1570 nM, respectively. Further, in experiment [1], the inhibition worked out at 88%.

With `CCOC(=O)C1=CN(Cc2ccccc2Cl)C=C(C(=O)OCC)C1c1ccc(O)cc1`, the inhibition in experiment [1] amounted to 49%.

Take `C=CCN1C=C(C(=O)OCC)C(c2ccc(Cl)cc2)C(C(=O)OCC)=C1`: in experiment [1], the inhibition was found to be 49.5%.

On to `CCOC(=O)C1=CN(Cc2ccccc2OC)C=C(C(=O)OCC)C1C1CC1`, for which the inhibition in experiment [1] came out at 48%.

Turning to `CCOC(=O)C1=CN(c2ccc(Cl)cc2)C=C(C(=O)OCC)C1Cc1ccccc1`, in experiment [1], the inhibition was determined as 57.5%.
